# According to EP1247803A2, “Indolinone compounds suitable for modulation of protein kinases” (Sugen, Inc., priority 1996, dated 1998):
# Target: T1, EGFR (Homo sapiens, UniProt P00533)
# T1 construct: Add 7 ug A431 cell lysate per well (EGFR source); endogenous in cells; host or cells: A431
# Experiment: EGFR ELISA assay (in vitro kinase activity, EGFR captured from A431 cell lysate)
# Type: biochemical
# Design: concentration or dose not given beside the values
# How it was run: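 EGFR from A431 lysate was captured on anti-EGFR antibody-coated plates and preincubated with compounds for 30 min. Autophosphorylation ran 5 min with 3 uM ATP and 5 mM MnCl2 (final), stopped with 20 mM EDTA. Phosphotyrosine was detected by anti-pTyr ELISA with ABTS/H2O2, read at 410 nm.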
# T1 sequence (P00533 25-1210): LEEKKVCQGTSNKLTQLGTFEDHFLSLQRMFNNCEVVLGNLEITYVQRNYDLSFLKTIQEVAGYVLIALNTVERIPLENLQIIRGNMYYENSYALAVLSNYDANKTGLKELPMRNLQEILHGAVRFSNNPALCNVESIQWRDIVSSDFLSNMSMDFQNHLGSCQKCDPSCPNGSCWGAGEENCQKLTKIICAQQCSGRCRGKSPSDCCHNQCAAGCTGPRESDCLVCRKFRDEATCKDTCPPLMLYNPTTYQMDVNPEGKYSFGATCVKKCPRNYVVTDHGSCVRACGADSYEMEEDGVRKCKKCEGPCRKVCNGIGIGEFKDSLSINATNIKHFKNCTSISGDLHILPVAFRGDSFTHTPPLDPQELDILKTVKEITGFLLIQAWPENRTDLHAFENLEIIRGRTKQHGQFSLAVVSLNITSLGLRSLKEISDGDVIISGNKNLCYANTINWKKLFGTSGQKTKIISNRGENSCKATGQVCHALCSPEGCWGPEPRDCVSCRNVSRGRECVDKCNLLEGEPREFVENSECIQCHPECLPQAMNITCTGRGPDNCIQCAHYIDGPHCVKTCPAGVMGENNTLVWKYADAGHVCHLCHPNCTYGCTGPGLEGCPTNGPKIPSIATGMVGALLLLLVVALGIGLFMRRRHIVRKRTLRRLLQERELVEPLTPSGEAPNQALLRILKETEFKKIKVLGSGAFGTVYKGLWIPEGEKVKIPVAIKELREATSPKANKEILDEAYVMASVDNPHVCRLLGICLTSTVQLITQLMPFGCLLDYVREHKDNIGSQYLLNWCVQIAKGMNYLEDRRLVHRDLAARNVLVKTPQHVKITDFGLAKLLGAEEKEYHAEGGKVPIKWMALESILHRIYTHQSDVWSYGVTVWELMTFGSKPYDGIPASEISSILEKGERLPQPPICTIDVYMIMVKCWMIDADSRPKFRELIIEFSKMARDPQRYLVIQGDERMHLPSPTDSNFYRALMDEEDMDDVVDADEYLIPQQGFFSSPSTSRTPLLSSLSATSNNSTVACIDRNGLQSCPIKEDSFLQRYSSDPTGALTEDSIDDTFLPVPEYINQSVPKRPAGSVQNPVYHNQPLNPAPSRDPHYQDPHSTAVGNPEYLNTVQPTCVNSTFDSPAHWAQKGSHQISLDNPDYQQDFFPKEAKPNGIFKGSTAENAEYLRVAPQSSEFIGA
row,SMILES,Biochem EGFR %Inhibition [%]
1,CCOc1ccccc1C=C1C(=O)Nc2c(Br)cc(Br)cc21 [10717/A02],24.3
2,Cc1c(Br)ccc2c1C(=Cc1cccn1C)C(=O)N2 [10717/C04],14.4
3,Cc1c(Br)ccc2c1C(=Cc1ccc(F)cc1)C(=O)N2 [10717/C05],13.1
4,Cc1c(Br)ccc2c1C(=Cc1c[nH]c3ccccc13)C(=O)N2 [10717/C06],-49.7
5,Cc1ccc(C=C2C(=O)Nc3ccc(Br)c(C)c32)s1 [10717/C07],28.7
6,Cc1c(Br)ccc2c1C(=Cc1ccc(Br)cc1)C(=O)N2 [10717/C08],24.3
7,Cc1c(Br)ccc2c1C(=Cc1ccc[nH]1)C(=O)N2 [10717/C09],8.1
8,COc1cccc(O)c1C=C1C(=O)Nc2ccc(Br)c(C)c21 [10717/C10],17.5
9,Cc1[nH]c(C=C2C(=O)Nc3ccc(Br)c(C)c32)c(Br)c1Br [10717/C11],67.3
10,CNS(=O)(=O)c1ccc2c(c1)C(=Cc1ccc(OC)c(OC)c1)C(=O)N2 [10720/D04],-7.7
11,CNS(=O)(=O)c1ccc2c(c1)C(=Cc1ccccc1O)C(=O)N2 [10720/D05],-24.1
12,CNS(=O)(=O)c1ccc2c(c1)C(=Cc1ccccc1)C(=O)N2 [10720/D06],-35.0
13,CNS(=O)(=O)c1ccc2c(c1)C(=Cc1ccc(SC)s1)C(=O)N2 [10720/D07],14.8
14,CNS(=O)(=O)c1ccc2c(c1)C(=Cc1c(C)cc(O)cc1O)C(=O)N2 [10720/D08],-13.3
15,CCOc1cc(C=C2C(=O)Nc3ccc(S(=O)(=O)NC)cc32)ccc1O [10720/D09],2.4
16,CNS(=O)(=O)c1ccc2c(c1)C(=Cc1cc(OC)ccc1O)C(=O)N2 [10720/D10],-10.2
17,CNS(=O)(=O)c1ccc2c(c1)C(=Cc1ncc[nH]1)C(=O)N2 [10720/D11],-5.5
18,O=C1Nc2ccc(S(=O)(=O)Nc3ccc(C(F)(F)F)cc3)cc2C1=Cc1c(F)cc(F)cc1F [10720/E02],25.2
19,COc1cc(O)ccc1C=C1C(=O)Nc2ccc(S(=O)(=O)Nc3ccc(C(F)(F)F)cc3)cc21 [10720/E03],54.4
20,COc1ccc(C=C2C(=O)Nc3ccc(S(=O)(=O)Nc4ccc(C(F)(F)F)cc4)cc32)cc1OC [10720/E04],-2.7
21,O=C1Nc2ccc(S(=O)(=O)Nc3ccc(C(F)(F)F)cc3)cc2C1=Cc1ccccc1O [10720/E05],40.7
22,O=C1Nc2ccc(S(=O)(=O)Nc3ccc(C(F)(F)F)cc3)cc2C1=Cc1ccccc1 [10720/E06],30.1
23,CSc1ccc(C=C2C(=O)Nc3ccc(S(=O)(=O)Nc4ccc(C(F)(F)F)cc4)cc32)s1 [10720/E07],55.1
24,Cc1cc(O)cc(O)c1C=C1C(=O)Nc2ccc(S(=O)(=O)Nc3ccc(C(F)(F)F)cc3)cc21 [10720/E08],37.4
25,CCOc1cc(C=C2C(=O)Nc3ccc(S(=O)(=O)Nc4ccc(C(F)(F)F)cc4)cc32)ccc1O [10720/E09],56.4
26,COc1ccc(O)c(C=C2C(=O)Nc3ccc(S(=O)(=O)Nc4ccc(C(F)(F)F)cc4)cc32)c1 [10720/E10],49.1
27,O=C1Nc2ccc(S(=O)(=O)Nc3ccc(C(F)(F)F)cc3)cc2C1=Cc1ncc[nH]1 [10720/E11],-65.5

row,SMILES,Biochem EGFR %Inhibition [%]
1,O=C1Nc2ccc(S(=O)(=O)N3CCOCC3)cc2C1=Cc1c(F)cc(F)cc1F [10720/F02],-19.3
2,COc1cc(O)ccc1C=C1C(=O)Nc2ccc(S(=O)(=O)N3CCOCC3)cc21 [10720/F03],7.1
3,COc1ccc(C=C2C(=O)Nc3ccc(S(=O)(=O)N4CCOCC4)cc32)cc1OC [10720/F04],-11.7
4,O=C1Nc2ccc(S(=O)(=O)N3CCOCC3)cc2C1=Cc1ccccc1O [10720/F05],-14.2
5,O=C1Nc2ccc(S(=O)(=O)N3CCOCC3)cc2C1=Cc1ccccc1 [10720/F06],-24.3
6,CSc1ccc(C=C2C(=O)Nc3ccc(S(=O)(=O)N4CCOCC4)cc32)s1 [10720/F07],35.2
7,Cc1cc(O)cc(O)c1C=C1C(=O)Nc2ccc(S(=O)(=O)N3CCOCC3)cc21 [10720/F08],-39.6
8,CCOc1cc(C=C2C(=O)Nc3ccc(S(=O)(=O)N4CCOCC4)cc32)ccc1O [10720/F09],6.4
9,COc1ccc(O)c(C=C2C(=O)Nc3ccc(S(=O)(=O)N4CCOCC4)cc32)c1 [10720/F10],6.0
10,O=C1Nc2ccc(S(=O)(=O)N3CCOCC3)cc2C1=Cc1ncc[nH]1 [10720/F11],-61.1
11,O=C1Nc2ccc(CCCl)cc2C1=Cc1c(F)cc(F)cc1F [10720/G02],-13.1
12,COc1cc(O)ccc1C=C1C(=O)Nc2ccc(CCCl)cc21 [10720/G03],10.0
13,COc1ccc(C=C2C(=O)Nc3ccc(CCCl)cc32)cc1OC [10720/G04],-34.1
14,O=C1Nc2ccc(CCCl)cc2C1=Cc1ccccc1O [10720/G05],27.0
15,O=C1Nc2ccc(CCCl)cc2C1=Cc1ccccc1 [10720/G06],-10.4
16,CSc1ccc(C=C2C(=O)Nc3ccc(CCCl)cc32)s1 [10720/G07],-8.0
17,Cc1cc(O)cc(O)c1C=C1C(=O)Nc2ccc(CCCl)cc21 [10720/G08],-9.5
18,CCOc1cc(C=C2C(=O)Nc3ccc(CCCl)cc32)ccc1O [10720/G09],-19.7
19,COc1ccc(O)c(C=C2C(=O)Nc3ccc(CCCl)cc32)c1 [10720/G10],20.4
20,O=C1Nc2ccc(CCCl)cc2C1=Cc1ncc[nH]1 [10720/G11],-56.7
21,Cn1c(C=C2C(=O)Nc3c(Br)cc(Br)cc32)nc2ccccc21 [10721/A02],17.8
22,Cn1cc(Cl)c(C=C2C(=O)Nc3c(Br)cc(Br)cc32)n1 [10721/A03],25.5
23,Cc1cc(C=C2C(=O)Nc3c(Br)cc(Br)cc32)sc1C [10721/A04],59.0
24,O=C1Nc2c(Br)cc(Br)cc2C1=Cc1cc2c([nH]1)CCCC2 [10721/A05],41.4
25,O=C1Nc2c(Br)cc(Br)cc2C1=Cc1cc([N+](=O)[O-])cc(CCl)c1O [10721/A06],32.7
26,O=C1Nc2c(Br)cc(Br)cc2C1=Cc1ccc(Cl)s1 [10721/A07],35.2
27,Cc1cc(C)c(C=C2C(=O)Nc3c(Br)cc(Br)cc32)[nH]1 [10721/A08],24.0

row,SMILES,Biochem EGFR %Inhibition [%]
1,CC(C)(C)c1cc(C=C2C(=O)Nc3c(Br)cc(Br)cc32)ccc1O [10721/A09],28.0
2,CC(C)(C)c1cc(C=C2C(=O)Nc3c(Br)cc(Br)cc32)cc(Br)c1O [10721/A10],31.1
3,CC(C)(C)c1cc(C=C2C(=O)Nc3c(Br)cc(Br)cc32)cc(C(C)(C)C)c1O [10721/A11],24.6
4,O=C1Nc2ccc(I)cc2C1=Cc1cc2c([nH]1)CCCC2 [10721/B05],76.8
5,Cc1cc(C)c(C=C2C(=O)Nc3ccc(I)cc32)[nH]1 [10721/B08],64.0
6,CC(C)(C)c1cc(C=C2C(=O)Nc3ccc(I)cc32)ccc1O [10721/B09],38.9
7,CC(C)(C)c1cc(C=C2C(=O)Nc3ccc(I)cc32)cc(Br)c1O [10721/B10],42.9
8,CC(C)(C)c1cc(C=C2C(=O)Nc3ccc(I)cc32)cc(C(C)(C)C)c1O [10721/B11],34.6
9,Cc1c(Br)ccc2c1C(=Cc1nc3ccccc3n1C)C(=O)N2 [10721/C02],68.3
10,Cc1c(Br)ccc2c1C(=Cc1nn(C)cc1Cl)C(=O)N2 [10721/C03],64.6
11,Cc1cc(C=C2C(=O)Nc3ccc(Br)c(C)c32)sc1C [10721/C04],77.7
12,Cc1c(Br)ccc2c1C(=Cc1cc3c([nH]1)CCCC3)C(=O)N2 [10721/C05],68.1
13,Cc1c(Br)ccc2c1C(=Cc1cc([N+](=O)[O-])cc(CCl)c1O)C(=O)N2 [10721/C06],80.2
14,Cc1c(Br)ccc2c1C(=Cc1ccc(Cl)s1)C(=O)N2 [10721/C07],24.6
15,Cc1cc(C)c(C=C2C(=O)Nc3ccc(Br)c(C)c32)[nH]1 [10721/C08],38.3
16,Cc1c(Br)ccc2c1C(=Cc1ccc(O)c(C(C)(C)C)c1)C(=O)N2 [10721/C09],39.8
17,Cc1c(Br)ccc2c1C(=Cc1cc(Br)c(O)c(C(C)(C)C)c1)C(=O)N2 [10721/C10],17.4
18,Cc1c(Br)ccc2c1C(=Cc1cc(C(C)(C)C)c(O)c(C(C)(C)C)c1)C(=O)N2 [10721/C11],14.1
19,CNS(=O)(=O)c1ccc2c(c1)C(=Cc1nc3ccccc3n1C)C(=O)N2 [10721/D02],21.5
20,CNS(=O)(=O)c1ccc2c(c1)C(=Cc1nn(C)cc1Cl)C(=O)N2 [10721/D03],11.6
21,CNS(=O)(=O)c1ccc2c(c1)C(=Cc1cc(C)c(C)s1)C(=O)N2 [10721/D04],5.0
22,CNS(=O)(=O)c1ccc2c(c1)C(=Cc1cc3c([nH]1)CCCC3)C(=O)N2 [10721/D05],47.0
23,CNS(=O)(=O)c1ccc2c(c1)C(=Cc1cc([N+](=O)[O-])cc(CCl)c1O)C(=O)N2 [10721/D06],44.5
24,CNS(=O)(=O)c1ccc2c(c1)C(=Cc1ccc(Cl)s1)C(=O)N2 [10721/D07],23.0
25,CNS(=O)(=O)c1ccc2c(c1)C(=Cc1[nH]c(C)cc1C)C(=O)N2 [10721/D08],31.7
26,CNS(=O)(=O)c1ccc2c(c1)C(=Cc1ccc(O)c(C(C)(C)C)c1)C(=O)N2 [10721/D09],15.3
